We go through five molecules from US8343966B2, “Organic compounds” (Novartis AG, priority 2008, dated 2013).

Data set [1] addresses T1, human ALK5 (ALK5 T204D kinase domain) (Homo sapiens, UniProt P36897, T204D).
T1 construct: The kinase domain of human ALK5 (amino acids 200-503); made in house; host or cells: insect cells (baculovirus)
T1 sequence (P36897 200-503 T204D): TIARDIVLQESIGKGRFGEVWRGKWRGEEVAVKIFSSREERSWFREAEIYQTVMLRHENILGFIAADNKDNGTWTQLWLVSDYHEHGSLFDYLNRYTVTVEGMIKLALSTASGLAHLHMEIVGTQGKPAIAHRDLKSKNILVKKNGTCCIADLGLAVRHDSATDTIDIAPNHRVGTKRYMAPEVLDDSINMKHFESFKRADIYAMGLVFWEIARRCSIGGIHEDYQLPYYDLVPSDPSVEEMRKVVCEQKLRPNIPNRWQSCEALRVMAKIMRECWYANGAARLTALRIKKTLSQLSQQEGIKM
The data set is described as follows: ALK5 kinase assay, [33P] phosphate incorporation into casein. Format: biochemical. Conditions: casein substrate, 1 μM unlabelled ATP. The method, then: The kinase activity of ALK5 is assessed by measuring radiolabelled phosphate [33P] incorporation in to the generic substrate, casein. The kinase domain of human ALK5 (amino acids 200-503) is fused to an N-terminal histidine tag. The kinase activity of ALK5 is rendered constitutive via point mutation at amino acid 204 (threonine to aspartate modification, ALK5 T204D) and the kinase construct is engineered to be expressed from a baculovirus expression construct in insect cells. The purified, recombinantly-expressed histidine-tagged ALK5 T204D protein is dissolved at 5.4 mg/ml in 50 mM Tris-HCl pH 8.0, 150 mM NaCl, 5 mM DTT. ALK5 T204D is dissolved to 2.5 μg/ml in assay buffer (Assay buffer: 20 mM Tris-HCl pH 7.4, 10 mM MgCl2, 2 mM MnCl2) on the day of use.
Test compounds and reference compounds are dissolved in assay buffer without DTT containing 5% (v/v) DMSO. Stock solutions of test and reference compounds are diluted in assay buffer with DTT (1.25 mM) containing 4.5% (v/v) DMSO. 10 μl of test or reference compound are added to the appropriate wells of 96 well U-bottomed plate. Total enzyme activity is determined by measuring ALK5 T204D activity in the absence of ALK5 kinase inhibitor reference compounds. Non-specific binding (NSB) is determined by measuring the activity of ALK5 T204D in the presence of ALK5 kinase inhibitor reference compounds. 10 μl of dephosphorylated casein stock solution (dephosphorylated casein is dissolved in ddH2O at 20 mg/ml) is added per well (200 μg/well final assay concentration). 20 μl of ALK5 T204D (2.5 μg/ml solution) is added per well (50 ng/well final assay concentration). The plates are left to incubate at room temperature for 10 minutes.
10 μl of ATP mix is added to the well to initiate the reaction (0.66 nM [^33P]ATP/1 μM unlabelled ATP/well final assay concentration). The ATP mix is prepared as follows, unlabelled ATP (3 mM) is dissolved in ddH2O and pH adjusted to 7.4. The stock concentration of [^33P]ATP is 10 μCi/μl. The appropriate volume of [^33P]ATP is added to unlabelled ATP solution such that the final assay concentration per well is 0.1 μCi. Following addition of the ATP mix, the plates are incubated at room temperature for 50 minutes. The kinase reaction is terminated by the addition of 50 μL Stop Buffer (20 mM Tris-HCl pH 7.4, 10 mM EDTA).
75 μl/well from the reaction plate is transferred to a Multiscreen-IP plate (MultiScreen-IP plates are prepared by added 50 μL of 70% (v/v) ethanol per well and incubated for 5 minutes at room temperature. The ethanol is removed by aspiration via a MultiScreen HTS Vacuum Manifold unit (Millipore, Cat no: MSVMHT500). The plates are washed twice by adding 200 μl/well ddH2O). The MultiScreen-IP plate is incubated at room temperature for 30 minutes to allowing binding of casein to the plate. The MultiScreen-IP plates are washed three times by adding 200 μl/well 100 mM phosphoric acid solution and the gasket is carefully removed from the back of the MultiScreen-IP plate and the plate dried in the oven for 30 minutes. The MultiScreen-IP plate is backsealed, 50 μL of Microscint™20 is added, then the plates are topsealed and radiolabelled casein detected and quantified on a TopCount™ plate-reader using the ^33P scintillation protocol.

The subject of data set [2] is dimethylnitrosamine induced liver fibrosis. Conditions: cited from earlier work.
The next data set concerns bleomycin-treated rats. Conditions: cited from earlier work.
The mark [3] stands for this setting: given therapeutically to rat, 3 weeks treatment.

The term IC50 denotes the point on the concentration scale where inhibition reaches its midpoint. Low values mean greater potency, high ones weaker potency. For `Nc1cc(-c2cncc(-c3ccc(CN4CCNCC4)cc3)c2)cc(-c2ccccn2)n1` [Example 2.159, 5″-(4-piperazin-1-ylmethyl-phenyl)-[2,2′;4′,3″]terpyridin-6′-ylamine], the IC50 in data set [1] came to 24 nM.
`CNc1cc(-c2cncc(-c3ccc(CN4CCNCC4)cc3)c2)cc(-c2ccccn2)n1` [Example 2.172, Methyl-[5″-(4-piperazin-1-ylmethyl-phenyl)-[2,2′;4′,3″]terpyridin-6′-yl]-amine]: half-maximal inhibition in data set [1] (IC50) required 10 nM.
In data set [1], `CNc1cc(-c2cncc(-c3cnn(C4CCNCC4)c3)c2)cc(-c2ccn(C)n2)n1` [Example 2.179, Methyl-[6′-(1-methyl-1H-pyrazol-3-yl)-5-(1-piperidin-4-yl-1H-pyrazol-4-yl)-[3,4′]bipyridinyl-2′-yl]-amine] showed an IC50 of 5 nM.
Take `c1ccc(-c2cc(-c3cn[nH]c3-c3ccccn3)ccn2)cc1` [GW6604]: the side effects entry in data set [2] (during the 3 weeks treatment) is listed as “no obvious side effects”. Also, in data set [2] (setting [3]), the “inhibition of extracellular matrix deposition” value is on record as 60% and the prevented death rate is 40%.

B1: Follistatin: an antagonist of activin signalling (protein, UniProt P19883 30-344, looked up)
Follistatin: GNCWLRQAKNGRCQVLYKTELSKEECCSTGRLSTSWTEEDVNDNTLFKWMIFNGGAPNCIPCKETCENVDCGPGKKCRMNKKNKPRCVCAPDCSNITWKGPVCGLDGKTYRNECALLKARCKEQPELEVQYQGRCKKTCRDVFCPGSSTCVVDQTNNAYCVTCNRICPEPASSEQYLCGNDGVTYSSACHLRKATCLLGRSIGLAYEGKCIKAKSCEDIQCTGGKKCLWDFKVGRGRCSLCDELCPDSKSDEPVCASDNATYASECAMKEAACSSGVLLEVKHSGSCNSISEDTEEEEEDEDQDYSFPISSILEW
Take B1: in the data set with bleomycin-treated rats, the lung fibrosis result is “attenuated”; the “number of macrophages and neutrophils in bronchoalveolar lavage” value is “significantly reduced”.
